These results are taken from patent US10307383B2, “Cosmetic composition for preventing or ameliorating hypersensitive skin comprising cedrol or derivatives thereof, or pharmaceutically acceptable salts thereof” (University of Seoul Industry Cooperation Foundation, priority 2017, dated 2019).

This assay relates to IL-17A expression. Description: IL-17A inhibition assay in IL-17 luciferase-(LUCPorter) stable reporter cell line. Conditions: for Inhibition of IL-17A expression (%) Experiment-1 / Inhibition of IL-17A expression (%) Experiment-2 / Inhibition of IL-17A expression (%) Experiment-3: 6 hours; for expression of IL-17A (luciferase units): control group 2,582 units; for inhibition at 10 µg/mL / inhibition at 100 µg/mL / inhibition at 1000 µg/mL / IC50: Homo sapiens; for inhibition at 10 µg/mL / inhibition at 100 µg/mL / inhibition at 1000 µg/mL: read-out: Average Inhibition (%); for IC50: read-out: IC50 to inhibit the IL-17A expression by 50%.

Structures are written as SMILES. Values after ≈ are worked out from the molar mass of the structure shown.

Broadly, the inhibition is the change of the read-out against control, counted positive when it falls. Usually IC50 stands for the concentration that gives 50% inhibition. As for `CO[C@]1(C)CC[C@@]23C[C@@H]1C(C)(C)[C@@H]2CC[C@H]3C` [methyl cedryl ether, Methyl cedryl ether], the inhibition at 10 µg/mL came to 0.7%, the inhibition at 100 µg/mL was 2.7%, the inhibition at 1000 µg/mL was determined as 30.7% and the IC50 is 1130 µg/mL (≈ 4.78 mM). Under “10 μg/ml”, the “expression of IL-17A, % by the control” value is 96 % by the control; the “Inhibition of IL-17A expression (%) Experiment-1” value (“Inhibition … (%) Experiment-1” for short) was −6%; the “Inhibition of IL-17A expression (%) Experiment-2” value (“Inhibition … (%) Experiment-2” below) turned out to be 4%; the “Inhibition of IL-17A expression (%) Experiment-3” value (shortened to “Inhibition … (%) Experiment-3”) was determined as 4%. Moreover, the “expression of IL-17A (luciferase units)” value (10 μg/ml) was 2,479±136 units. Under “100 μg/ml”, the “expression of IL-17A, % by the control” value is 92 % by the control; the “Inhibition … (%) Experiment-1” value was −5%; the “Inhibition … (%) Experiment-2” value stood at 5%; the “Inhibition … (%) Experiment-3” value came out at 8%. In addition, the “expression of IL-17A (luciferase units)” value (100 μg/ml) is given as 2,379±206 units. Where the note is “1,000 μg/ml”, the “expression of IL-17A, % by the control” value stood at 74 % by the control and the “expression of IL-17A (luciferase units)” value is 1,921±239 units. Moreover, where the note is “1000 μg/ml”, the “Inhibition … (%) Experiment-1” value turned out to be 48%, the “Inhibition … (%) Experiment-2” value is on record as 18% and the “Inhibition … (%) Experiment-3” value was found to be 26%.
Regarding `C[C@@H]1CC[C@H]2C(C)(C)[C@H]3C[C@@]12CC1OC13C` (stereo partly drawn) [cedrene epoxide, Cedrene epoxide], the inhibition at 10 µg/mL is 5%, the inhibition at 100 µg/mL was 14%, the inhibition at 1000 µg/mL was 54% and the IC50 turned out to be 942 µg/mL (≈ 4.27 mM). For the setting “10 μg/ml”, the “expression of IL-17A, % by the control” value was 100 % by the control; the “Inhibition … (%) Experiment-1” value was found to be 11%; the “Inhibition … (%) Experiment-2” value is 4%; the “Inhibition … (%) Experiment-3” value amounted to 0%. Moreover, the “expression of IL-17A (luciferase units)” value (10 μg/ml) was 2,591±458 units. For the setting “100 μg/ml”, the “expression of IL-17A, % by the control” value worked out at 88 % by the control; the “Inhibition … (%) Experiment-1” value is on record as 14%; the “Inhibition … (%) Experiment-2” value came to 16%; the “Inhibition … (%) Experiment-3” value was 12%. Moreover, the “expression of IL-17A (luciferase units)” value (100 μg/ml) is 2,267±806 units. Moreover, for the setting “1,000 μg/ml”, the “expression of IL-17A, % by the control” value amounted to 54 % by the control and the “expression of IL-17A (luciferase units)” value is on record as 1,382±87 units. For the same compound, for the setting “1000 μg/ml”, the “Inhibition … (%) Experiment-1” value turned out to be 60%, the “Inhibition … (%) Experiment-2” value was determined as 56% and the “Inhibition … (%) Experiment-3” value was 46%.
Take `CC(=O)C1=C(C)[C@@H]2C[C@@]3(C1)[C@H](C)CC[C@H]3C2(C)C` [methyl cedryl ketone, Methyl cedryl ketone]: the inhibition at 10 µg/mL amounted to 4.7%, the inhibition at 100 µg/mL is 17.3%, the inhibition at 1000 µg/mL was determined as 67.3% and the IC50 is 841 µg/mL (≈ 3.41 mM). For the same compound, for the setting “10 μg/ml”, the “expression of IL-17A, % by the control” value was determined as 87 % by the control; the “Inhibition … (%) Experiment-1” value is recorded as 0%; the “Inhibition … (%) Experiment-2” value is 1%; the “Inhibition … (%) Experiment-3” value was determined as 13%. The “expression of IL-17A (luciferase units)” value (10 μg/ml) was 2,248±194 units. Further, where the note is “100 μg/ml”, the “expression of IL-17A, % by the control” value is listed as 75 % by the control; the “Inhibition … (%) Experiment-1” value is on record as 12%; the “Inhibition … (%) Experiment-2” value came out at 15%; the “Inhibition … (%) Experiment-3” value is recorded as 25%. Also, for the setting “100 μg/ml”, the “expression of IL-17A (luciferase units)” value was 1,930±111 units. Further, where the note is “1,000 μg/ml”, the “expression of IL-17A, % by the control” value is given as 34 % by the control and the “expression of IL-17A (luciferase units)” value was determined as 866±106 units. For the same compound, where the note is “1000 μg/ml”, the “Inhibition … (%) Experiment-1” value was 78%, the “Inhibition … (%) Experiment-2” value is on record as 58% and the “Inhibition … (%) Experiment-3” value stood at 66%.
